Laboratory results published in patent US9226882B2, “Eco-friendly non-aqueous antimicrobial composition comprising tropolone with 1,3-propanediol and/or sorbitan caprylate” (ISP INVESTMENTS INC., priority 2012, dated 2016).
≈ marks a conversion by molar mass, not a printed value.

Tests used:
[1] = system: Candida albicans, (DSM 1386); test: MIC study on agar, yeast strain; assay type: cell-based; conditions: DSM1386, Candida albican, Malt extract-Agar (3%) pH 5.6, 2 to 3 weeks at 20 to 25° C. in the dark
Experimental: (§1) Equal amounts of mixtures were poured into four Petri dishes. After cooling, the Petri dishes were inoculated with the respective standard strains. During the experiment, the Petri dishes were kept for 2 to 3 weeks at room temperature of about 20 to 25° C. in the dark. The following two different types of culture media were employed for the present studies: • i. […] The preferred bacterial strains for the present application are Pseudomonas aeruginosa (DSM 1128), Staphylococcus aureus (DSM 799), E. Coli (DSM 1576), Proteus mirabilis (DSM 788) and Burkholderia cepacia (DSM 7288), and the preferred fungal strains are Aspergillus brasiliensis (DSM 1988), Penicillium expansum (DSM 1282), Trichoderma viride (DSM 63064), and the yeast is Candida albicans, (DSM 1386). After 2nd and 3rd weeks macroscopic evaluations were performed, the ratings are as follows: The formulation under examination is considered to be efficient if the following conditions are duly fulfilled i.e. (i) after 2-3 weeks no growth of the tested culture is visible; (ii) with rising concentration of the tested formulation, the germ growth should macroscopically be reduced until it is not visible any more.

[2] = system: Trichoderma viride (DSM 63064); test: MIC study on agar, fungal strain; assay type: cell-based
Experimental: as §1

[3] = system: Penicillium expansum (DSM 1282); test: MIC study on agar, fungal strain; assay type: cell-based; conditions: DSM1282, Penicillim expansum, Malt extract-Agar (3%) pH 5.6, 2 to 3 weeks at 20 to 25° C. in the dark
Experimental: as §1

[4] = system: Aspergillus brasiliensis (DSM 1988); test: MIC study on agar, fungal strain; assay type: cell-based
Experimental: as §1

[5] = system: Staphylococcus aureus (DSM 799); test: MIC study on agar, bacterial strain; assay type: cell-based; conditions: DSM799, Caso-Agar pH 7.3, 2 to 3 weeks at 20 to 25° C. in the dark
Experimental: as §1

[6] = system: Burkholderia cepacia (DSM 7288); test: MIC study on agar, bacterial strain; assay type: cell-based
Experimental: as §1

[7] = system: Proteus mirabilis (DSM 788); test: MIC study on agar, bacterial strain; assay type: cell-based; conditions: DSM788, Caso-Agar pH 7.3, 2 to 3 weeks at 20 to 25° C. in the dark
Experimental: as §1

[8] = system: Pseudomonas aeruginosa (DSM 1128); test: MIC study on agar, bacterial strain; assay type: cell-based; conditions: DSM1128, Caso-Agar pH 7.3, 2 to 3 weeks at 20 to 25° C. in the dark
Experimental: as §1

[9] = system: E. Coli (DSM 1576); test: MIC study on agar, bacterial strain; assay type: cell-based, Escherichia coli
Experimental: as §1

O=c1cccccc1O [Tropolone, 2-Hydroxy-2,4,6-cycloheptatrien-1-one]
MIC [1]: 20 µg/mL (≈ 164 µM) | MIC ([2]; DSM63064, Trichoderma viride, Malt extract-Agar (3%) pH 5.6, 2 to 3 weeks at 20 to 25° C. in the dark): 250 µg/mL (≈ 2050 µM) | reduction of MIC level of tropolone ([2]; by sorbitan caprylate (Velsan SC), against Trichoderma viride): > 50% | MIC [3]: 100 µg/mL (≈ 819 µM) | MIC ([4]; DSM1988, Aspergillus brasiliensis, Malt extract-Agar (3%) pH 5.6, 2 to 3 weeks at 20 to 25° C. in the dark): 50 µg/mL (≈ 409 µM) | reduction of MIC level of tropolone ([4]; by sorbitan caprylate (Velsan SC), against Aspergillus brasiliensis): > 50% | MIC [5]: 250 µg/mL (≈ 2050 µM) | MIC ([6]; DSM7288, Burkholderia cepacia, Caso-Agar pH 7.3, 2 to 3 weeks at 20 to 25° C. in the dark): 250 µg/mL (≈ 2050 µM) | reduction of MIC level of tropolone ([6]; by sorbitan caprylate (Velsan SC), against Burkholderia cepacia): > 90% | MIC [7]: 250 µg/mL (≈ 2050 µM) | MIC [8]: 500 µg/mL (≈ 4090 µM) | MIC ([9]; DSM1576, Escherichia coli, Caso-Agar pH 7.3, 2 to 3 weeks at 20 to 25° C. in the dark): 250 µg/mL (≈ 2050 µM) | reduction of MIC level of tropolone ([9]; in presence of 1,3-propanediol (Zemea), against Escherichia coli): > 50%
